In patent publication US12318393B2, “Modulators of orphan nuclear receptors for NASH and other metabolic disorders” (Emory University, priority 2018, dated 2025):

How the values were obtained:
RORα = molecular target: T1, RORα (Homo sapiens, UniProt P35398); assay: RORα activity by luciferase reporter (miR-122 promoter with WT or mutated RORE) in Huh-7 cells; format: cell-based; conditions: 24 hours of treatment
T1 construct: endogenous in cells; host or cells: Huh-7 (human hepatocellular carcinoma cells)
T1 sequence (P35398 1-523): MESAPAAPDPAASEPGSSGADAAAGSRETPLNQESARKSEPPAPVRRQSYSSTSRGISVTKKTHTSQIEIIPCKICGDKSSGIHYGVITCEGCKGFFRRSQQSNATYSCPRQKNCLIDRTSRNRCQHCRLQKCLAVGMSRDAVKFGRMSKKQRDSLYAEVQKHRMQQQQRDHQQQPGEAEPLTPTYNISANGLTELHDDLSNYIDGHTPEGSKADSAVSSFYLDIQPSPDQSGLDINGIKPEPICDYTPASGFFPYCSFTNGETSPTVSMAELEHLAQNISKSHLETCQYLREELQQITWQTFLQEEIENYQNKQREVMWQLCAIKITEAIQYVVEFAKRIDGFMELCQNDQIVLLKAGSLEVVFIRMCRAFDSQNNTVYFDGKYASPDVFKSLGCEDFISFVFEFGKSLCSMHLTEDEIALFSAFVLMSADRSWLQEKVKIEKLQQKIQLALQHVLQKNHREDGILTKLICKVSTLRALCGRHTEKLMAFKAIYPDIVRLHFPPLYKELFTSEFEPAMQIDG
Protocol: Huh-7 cells were transfected with a luciferase reporter plasmid containing the miR-122 promoter (extends to −900 from the transcription start site) with intact wild-type (WT) RORα response element (RORE) or mutated RORE (mut). The cells were treated with Compound 1 one day (24 hours) post-transfection at the indicated concentrations. Luciferase expression was measured after 24 hours of treatment and normalized to Renilla Luciferase activity expressed from a co-transfected pRL plasmid. The pRL Vector, which provides constitutive expression of Renilla luciferase, was used in combination with a firefly luciferase vector to co-transfect cells. […]
Luciferase assay. […] Firefly and Renilla luciferase activity was assessed using the Dual Luciferase Reporter Assay system (Promega). Readings were taken in triplicates on a Mithras LB 940 Luminometer (Berthold Technologies). […]
Following transfections, the cells were lysed with passive lysis buffer (Cat #E1941; Promega), shaking for 20 min at RT and transferred into appropriate 96-well plate. Firefly and Renilla luciferase activity was assessed using the Dual Luciferase Reporter Assay system (Cat #E1910; Promega) on a luminometer Mithras 2000 (Centro XZ, LB960, Berthold Technologies, Bad Wildbad, Germany). […] Readings were taken in triplicate.

miR-122 and Gpase6 = assay: Modulation of RORα-regulated genes in healthy C57BL/6 mice; format: in vivo; conditions: 7.5 mg/kg i.p. once
Protocol: Healthy C57BL/6 mice were injected i.p. once with 7.5 mg/kg Compound 1 or saline control. Mice were sacrificed at 1, 2, and 7 day time points post-injection. miR-122 and Gpase 6 mRNA levels were determined by qRT-PCR for each time point. MicroRNA levels were normalized to RNU6; plasma miR-122 was normalized to spiked in C. elegans miR-39; and mRNA levels were normalized to HPRT.
RNA extraction and quantitative Real-Time PCR analysis. Total RNA, including small RNAs, were isolated from 200 μL of plasma or culture media samples using the miRNeasy Mini kit (Qiagen, Valencia, CA, USA) with 2 minor modifications. First, 200 μl of plasma or culture media were lysed with 1 ml of Qiazol solution. Second, a 50 pmol/l of synthesized single strand Caenorhabditis elegans miRNA (cel-miR-39) was added as the spike-in control to monitor extraction efficiency. The remainder of the RNA extraction was performed according to the manufacturer's instructions. miRNAs were eluted with 30 μl of RNase-free water. Total RNA, including miRNAs, from cells or tissues were isolated using TRIzol reagent (Invitrogen, Carlsbad, CA, USA). cDNA was synthesized using the Quanta Biosciences qScript™ cDNA Synthesis Kit (95047-100) for mRNA analysis, and using the qScript™ microRNA cDNA Synthesis Kit (95107-100) for miRNAs analysis. qRT-PCR of miRNAs and mRNA was performed using the ABI 7900 HT Real-Time PCR System and a SYBR Green PCR Kit: Quanta Cat. #84018 and #84071 respectively. The fold expression and statistical significance were calculated using the 2-ΔΔ Ct method. All experiments were performed in triplicates.

[1] = test system: C57BL/6 mice fed with HFD; assay: Insulin tolerance test in HFD-fed C57BL/6 mice; format: in vivo; conditions: 15 mg/kg 3 times a week for 3 weeks
Protocol: At 4 months of age, an insulin tolerance test was performed on fasted C57BL/6 male mice following HFD feeding for 9 weeks following Compound 1 or saline with DMSO injections. Mice received an i.p. injection of human insulin (Actrapid) at a dosage of 0.88 units/kg followed by glucose checks every 20 minutes. […] Glucose measurements were assessed on blood from the tail following a tail snip at indicated time-points using a blood glucometer (Accu-Chek) and test strips (Accu-Chek).
Experimental design: C57BL/6 mice fed for 6 weeks with HFD were injected with 15 mg/kg Compound 1 (or saline+DMSO) 3 times a week for 3 weeks (n=6). Whole-blood glucose levels during an insulin tolerance test (ITT) in HFD fed Compound 1-treated mice vs. HFD-fed saline-treated mice and normal-diet fed mice (control ND); minutes indicate time after insulin injection. N.s.=not significant.

luciferase expression, mutated RORE (RORα; Huh-7, miR-122 promoter reporter with mutated RORE): negates activity
luciferase expression, WT RORE (RORα; Huh-7, miR-122 promoter reporter with wild-type RORE): dose-dependent increase
Compound: O=C1Nc2cc(C(=O)N3CCC(Cc4ccccc4)CC3)ccc2Nc2ccccc21 [Compound 1]
miR-18 and miR-126 levels (controls) (miR-122 and Gpase6; over 7 days): not affected
Gpase6 mRNA (RORα-regulated gene) (miR-122 and Gpase6; up to 7 days post-injection): significantly up-regulated
miR-122 levels in plasma and liver (miR-122 and Gpase6; up to 7 days post-injection): increased
insulin sensitivity compared to the untreated cohort [1]: improves
blood glucose in insulin tolerance test after 100 minutes ([1]; 100 minutes after insulin): 70%
blood glucose, initial decrease in insulin tolerance test ([1]; after 45 minutes post-injection of insulin): approximately 55%
